Consider 24 compounds from patent US12077523B2, “N-(isopropyl-triazolyl)pyridinyl)-heteroaryl-carboxamide derivatives and use thereof” (HK INNO.N CORPORATION, priority 2018, dated 2024).

This assay has as its target T1, ASK-1 enzyme (Homo sapiens, UniProt Q99683).
T1 construct: purchased Signal Chem M13-11G-10
Briefly: Inhibitory ability against ASK-1 enzyme activity (ADP-Glo Kinase Assay). In kind it is biochemical. The note with it: 250 μM ATP, MBP substrate, 15 ng ASK-1 enzyme, 30° C. 40 minutes. The method, then: Experimental Example 1: Assay of Inhibitory Ability Against ASK-1 Enzyme Activity (ADP-Glo™ Kinase Assay)
In order to evaluate the inhibitory ability of the compounds of Examples 1 to 24 against ASK-1 enzyme activity, the following experiment was carried out using ADP-Glo™ (Promega, Cat. No. V9101). Each of the compounds was prepared into a solution at concentrations of 0.32 nM, 1.6 nM, 8 nM, 40 nM, 200 nM, 1,000 nM by adding a kinase buffer solution (40 mM Tris, 20 mM MgCl2, 0.1 mg/mL bovine serum albumin in H2O). Subsequently, 250 μM of ATP (Promega, Cat. No. V915A) and 0.5 μg/μL of MBP substrate (Signal Chem, Cat. No. 42-51N) were added thereto, and the mixture was reacted at 30° C. for 40 minutes in the presence of 15 ng of ASK-1 enzyme (Signal Chem, Cat. No. M13-11G-10). Then, the ADP-Glo™ reagent and a kinase detection reagent were sequentially added thereto and reacted for 40 minutes and 10 minutes, respectively. After completion of the reaction, luminescence was measured using a Synergy™ NEO microplate reader (BioTEK, NEOB-1311189).
The inhibitory ability of the compounds of Examples 1 to 24 against ASK-1 enzyme activity was verified by analyzing data from the measured RLU values. Specifically, the inhibitory ability against ASK-1 enzyme activity was assessed by deriving the residual activity percentage of the ASK-1 enzyme in the samples treated with the compounds at the concentration to be tested, while using the RLU value of the sample not treated with the compounds as a 100% control.
In general terms: In ADP-Glo the light output rises with the ADP produced.

The structures appear in SMILES notation.

T1 sequence (Q99683 649-946 limits assumed): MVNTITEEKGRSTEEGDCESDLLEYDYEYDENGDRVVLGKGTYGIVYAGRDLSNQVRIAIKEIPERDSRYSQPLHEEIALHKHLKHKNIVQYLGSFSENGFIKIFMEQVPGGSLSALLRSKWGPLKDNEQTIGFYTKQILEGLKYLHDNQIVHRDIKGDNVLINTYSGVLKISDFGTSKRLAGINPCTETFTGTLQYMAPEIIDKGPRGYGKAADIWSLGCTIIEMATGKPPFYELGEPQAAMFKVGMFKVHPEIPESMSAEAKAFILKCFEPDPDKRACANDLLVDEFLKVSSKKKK

The term IC50 denotes the midpoint of a concentration-inhibition curve. As for `Cc1c[nH]c(C(=O)Nc2cccc(-c3nncn3C(C)C)n2)c1` [Example 1, N-(6-(4-isopropyl-4H-1,2,4-triazol-3-yl)pyridin-2-yl)-4-methyl-1H-pyrrole-2-carboxamide], the IC50 is 9.9 nM.

`Cc1cccc(-c2c[nH]c(C(=O)Nc3cccc(-c4nncn4C(C)C)n3)c2)c1` [Example 2, N-(6-(4-isopropyl-4H-1,2,4-triazol-3-yl)pyridin-2-yl)-4-m-tolyl-1H-pyrrole-2-carboxamide]: the IC50 was found to be 4 nM.

As for `COCc1c[nH]c(C(=O)Nc2cccc(-c3nncn3C(C)C)n2)c1` [Example 3, N-(6-(4-isopropyl-4H-1,2,4-triazol-3-yl)pyridin-2-yl)-4-(methoxymethyl)-1H-pyrrole-2-carboxamide], the IC50 was determined as 7.7 nM.

Regarding `CCc1c[nH]c(C(=O)Nc2cccc(-c3nncn3C(C)C)n2)c1` [Example 4, 4-ethyl-N-(6-(4-isopropyl-4H-1,2,4-triazol-3-yl)pyridin-2-yl)-1H-pyrrole-2-carboxamide], the IC50 was found to be 8.3 nM.

On to `Cc1ccc(-c2c[nH]c(C(=O)Nc3cccc(-c4nncn4C(C)C)n3)c2)cc1` [Example 5, N-(6-(4-isopropyl-4H-1,2,4-triazol-3-yl)pyridin-2-yl)-4-p-tolyl-1H-pyrrole-2-carboxamide], for which the IC50 amounted to 6 nM.

For the compound `CC(C)n1cnnc1-c1cccc(NC(=O)c2cc(-c3ccccc3)c[nH]2)n1` [Example 6, N-(6-(4-isopropyl-4H-1,2,4-triazol-3-yl)pyridin-2-yl)-4-phenyl-1H-pyrrole-2-carboxamide], the IC50 was determined as 6.5 nM.

In the case of `CC(C)n1cnnc1-c1cccc(NC(=O)c2ccc[nH]2)n1` [Example 7, N-(6-(4-isopropyl-4H-1,2,4-triazol-3-yl)pyridin-2-yl)-1H-pyrrole-2-carboxamide], the IC50 was 11.6 nM.

`Cc1ccc(C(=O)Nc2cccc(-c3nncn3C(C)C)n2)[nH]1` [Example 8, N-(6-(4-isopropyl-4H-1,2,4-triazol-3-yl)pyridin-2-yl)-5-methyl-1H-pyrrole-2-carboxamide]: the IC50 amounted to 34.4 nM.

Take `CC(C)n1cnnc1-c1cccc(NC(=O)c2ccc(-c3ccccc3)[nH]2)n1` [Example 9, N-(6-(4-isopropyl-4H-1,2,4-triazol-3-yl)pyridin-2-yl)-5-phenyl-1H-pyrrole-2-carboxamide]: the IC50 was 5.8 nM.

`Cc1ccc(-c2ccc(C(=O)Nc3cccc(-c4nncn4C(C)C)n3)[nH]2)cc1` [Example 10, N-(6-(4-isopropyl-4H-1,2,4-triazol-3-yl)pyridin-2-yl)-5-p-tolyl-1H-pyrrole-2-carboxamide]: the IC50 turned out to be 10.2 nM.

Consider `CCc1ccc(C(=O)Nc2cccc(-c3nncn3C(C)C)n2)[nH]1` [Example 11, 5-ethyl-N-(6-(4-isopropyl-4H-1,2,4-triazol-3-yl)pyridin-2-yl)-1H-pyrrole-2-carboxamide], for which the IC50 stood at 49.7 nM.

Take `Cc1ncc(-c2ccc(C(=O)Nc3cccc(-c4nncn4C(C)C)n3)[nH]2)cn1` [Example 12, N-(6-(4-isopropyl-4H-1,2,4-triazol-3-yl)pyridin-2-yl)-5-(2-methylpyrimidine-5-yl)-1H-pyrrole-2-carboxamide]: the IC50 was 9.9 nM.

Turning to `CC(C)n1cnnc1-c1cccc(NC(=O)c2ccc(-c3ccc(S(C)(=O)=O)cc3)[nH]2)n1` [Example 13, N-(6-(4-isopropyl-4H-1,2,4-triazol-3-yl)pyridin-2-yl)-5-(4-(methylsulfonyl)phenyl)-1H-pyrrole-2-carboxamide], the IC50 is 4.4 nM.

`Cc1cccc(-c2ccc(C(=O)Nc3cccc(-c4nncn4C(C)C)n3)[nH]2)c1` [Example 14, N-(6-(4-isopropyl-4H-1,2,4-triazol-3-yl)pyridin-2-yl)-5-m-tolyl-1H-pyrrole-2-carboxamide]: the IC50 was found to be 5.8 nM.

As for `Cc1cc(C)cc(-c2ccc(C(=O)Nc3cccc(-c4nncn4C(C)C)n3)[nH]2)c1` [Example 15, 5-(3,5-dimethylphenyl)-N-(6-(4-isopropyl-4H-1,2,4-triazol-3-yl)pyridin-2-yl)-1H-pyrrole-2-carboxamide], the half-maximal inhibitory concentration (IC50) is 8.5 nM.

In the case of `CC(C)n1cnnc1-c1cccc(NC(=O)c2ccc(-c3ccc(Cl)cc3)[nH]2)n1` [Example 16, 5-(4-chlorophenyl)-N-(6-(4-isopropyl-4H-1,2,4-triazol-3-yl)pyridin-2-yl)-1H-pyrrole-2-carboxamide], the IC50 came to 5.4 nM.

With `CC(C)n1cnnc1-c1cccc(NC(=O)c2ccc(-c3cccs3)[nH]2)n1` [Example 17, N-(6-(4-isopropyl-4H-1,2,4-triazol-3-yl)pyridin-2-yl)-5-(thiophene-2-yl)-1H-pyrrole-2-carboxamide], the IC50 worked out at 7.9 nM.

Regarding `Cc1ccc(-c2ccc(C(=O)Nc3cccc(-c4nncn4C(C)C)n3)[nH]2)cc1C` [Example 18, 5-(3,4-dimethylphenyl)-N-(6-(4-isopropyl-4H-1,2,4-triazol-3-yl)pyridin-2-yl)-1H-pyrrole-2-carboxamide], the IC50 is 4.8 nM.

On to `Cc1ccc(-c2ccc(C(=O)Nc3cccc(-c4nncn4C(C)C)n3)[nH]2)cc1F` [Example 19, 5-(3-fluoro-4-methylphenyl)-N-(6-(4-isopropyl-4H-1,2,4-triazol-3-yl)pyridin-2-yl)-1H-pyrrole-2-carboxamide], for which the IC50 came to 5.2 nM.

Consider `CC(C)n1cnnc1-c1cccc(NC(=O)c2ccc(-c3ccc(F)c(Cl)c3)[nH]2)n1` [Example 20, 5-(3-chloro-4-fluorophenyl)-N-(6-(4-isopropyl-4H-1,2,4-triazol-3-yl)pyridin-2-yl)-1H-pyrrole-2-carboxamide], for which the IC50 is 5.3 nM.

As for `CSc1ccc(-c2ccc(C(=O)Nc3cccc(-c4nncn4C(C)C)n3)[nH]2)cc1` [Example 21, N-(6-(4-isopropyl-4H-1,2,4-triazol-3-yl)pyridin-2-yl)-5-(4-(methylthio)phenyl)-1H-pyrrole-2-carboxamide], the concentration for half-maximal inhibition (IC50) came to 3.1 nM.

`Cc1ccccc1-c1ccc(C(=O)Nc2cccc(-c3nncn3C(C)C)n2)[nH]1` [Example 22, N-(6-(4-isopropyl-4H-1,2,4-triazol-3-yl)pyridin-2-yl)-5-o-tolyl-1H-pyrrole-2-carboxamide]: the IC50 amounted to 5.1 nM.

For the compound `CC(C)n1cnnc1-c1cccc(NC(=O)c2ccc(-c3ccc(F)cc3)[nH]2)n1` [Example 23, 5-(4-fluorophenyl)-N-(6-(4-isopropyl-4H-1,2,4-triazol-3-yl)pyridin-2-yl)-1H-pyrrole-2-carboxamide], the IC50 is 5.9 nM.

Regarding `CCOc1ccc(-c2ccc(C(=O)Nc3cccc(-c4nncn4C(C)C)n3)[nH]2)cc1` [Example 24, 5-(4-ethoxyphenyl)-N-(6-(4-isopropyl-4H-1,2,4-triazol-3-yl)pyridin-2-yl)-1H-pyrrole-2-carboxamide], the IC50 was 7.5 nM.
